Assay results taken from patent US8716303B2, “N-(hetero)aryl-pyrrolidine derivatives of pyrazol-4-yl-pyrrolo[2,3-d]pyrimidines and pyrrol-3-yl-pyrrolo[2,3-d]pyrimidines as janus kinase inhibitors” (Incyte Corporation, priority 2009, dated 2014).
Where a name gives a salt, the structure may show the parent alone.

Experiments:
[1] = biological target: T1, human JAK1 (a.a. 837-1142) (Homo sapiens, UniProt P23458); test: In vitro JAK kinase assay (HTRF, phosphorylation of a biotinylated peptide), JAK1; format: biochemical
T1 construct: human JAK1 (a.a. 837-1142); His tag (N); made in house; host or cells: insect cells (baculovirus)
T1 sequence (P23458 849-1154): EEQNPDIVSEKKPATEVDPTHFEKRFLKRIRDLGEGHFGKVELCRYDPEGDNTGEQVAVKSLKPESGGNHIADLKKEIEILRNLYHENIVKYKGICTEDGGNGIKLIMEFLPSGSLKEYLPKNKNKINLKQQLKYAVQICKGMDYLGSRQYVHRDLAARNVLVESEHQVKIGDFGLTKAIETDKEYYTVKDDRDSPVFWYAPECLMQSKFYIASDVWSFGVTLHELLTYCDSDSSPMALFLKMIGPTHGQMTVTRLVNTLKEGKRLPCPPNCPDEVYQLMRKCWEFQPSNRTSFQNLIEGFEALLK
Protocol: (§1) Compounds herein were tested for inhibitory activity of JAK targets according to the following in vitro assay described in Park et al., Analytical Biochemistry 1999, 269, 94-104. The catalytic domains of human JAK1 (a.a. 837-1142), Jak2 (a.a. 828-1132) and Jak3 (a.a. 781-1124) with an N-terminal His tag were expressed using baculovirus in insect cells and purified. The catalytic activity of JAK1, JAK2 or JAK3 was assayed by measuring the phosphorylation of a biotinylated peptide. The phosphorylated peptide was detected by homogenous time resolved fluorescence (HTRF). IC50s of compounds were measured for each kinase in the 40 microL reactions that contain the enzyme, ATP and 500 nM peptide in 50 mM Tris (pH 7.8) buffer with 100 mM NaCl, 5 mM DTT, and 0.1 mg/mL (0.01%) BSA. The ATP concentration in the reactions was 90 μM for Jak1, 30 μM for Jak2 and 3 μM for Jak3 for Km conditions. For the 1 mM IC50 measurements, ATP concentration in the reactions was 1 mM. Reactions were carried out at RT for 1 h and then stopped with 20 μL 45 mM EDTA, 300 nM SA-APC, 6 nM Eu-Py20 in assay buffer (Perkin Elmer, Boston, Mass.). Binding to the Europium labeled antibody took place for 40 min and HTRF signal was measured on a Fusion plate reader (Perkin Elmer, Boston, Mass.).
(§2) Compounds herein were tested for inhibitory activity of JAK1 and JAK2 targets according to the assay of Example A (experiments run at Km or 1 mM as indicated). The symbol “+” indicates an IC50<50 nM; the symbol “++” indicates an IC50≧50 and ≦100 nM; and the symbol “+++” indicates an IC50>100 and ≦500 nM.

Jak2 (a.a. 828-1132) = biological target: T2, Jak2 (a.a. 828-1132) (Homo sapiens, UniProt O60674); test: In vitro JAK kinase assay (HTRF, phosphorylation of a biotinylated peptide), JAK2, reported as JAK2/JAK1 ratio; format: biochemical
T2 construct: Jak2 (a.a. 828-1132); His tag (N); made in house; host or cells: insect cells (baculovirus)
T2 sequence (O60674 828-1132): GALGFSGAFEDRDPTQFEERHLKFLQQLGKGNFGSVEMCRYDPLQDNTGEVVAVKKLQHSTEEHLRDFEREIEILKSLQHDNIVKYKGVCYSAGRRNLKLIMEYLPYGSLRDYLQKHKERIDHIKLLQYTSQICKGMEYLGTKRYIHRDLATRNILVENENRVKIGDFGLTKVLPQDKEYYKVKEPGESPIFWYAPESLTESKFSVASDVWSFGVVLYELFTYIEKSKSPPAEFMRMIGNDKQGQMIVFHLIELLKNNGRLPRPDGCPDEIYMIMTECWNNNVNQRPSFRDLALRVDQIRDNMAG
Protocol: as §1, §2

[2] = Assay Conditions Km (ATP 90 μM for Jak1)
[3] = Assay Conditions Km (ATP 90 μM for Jak1, 30 μM for Jak2)

N#CCC(C1CCN(c2ncc3c(c2C#N)SCC3)C1)n1ccc(-c2ncnc3[nH]ccc23)c1 (single isomer, unassigned) [Example 174-1, 6-(3-{2-cyano-1-[3-(7H-pyrrolo[2,3-d]pyrimidin-4-yl)-1H-pyrrol-1-yl]ethyl}pyrrolidin-1-yl)-2,3-dihydrothieno[3,2-c]pyridine-7-carbonitrile]
IC50 ([1]; Assay Conditions 1 mM ATP): < 0.05 µM | JAK2/JAK1 IC50 ratio (Jak2 (a.a. 828-1132); Assay Conditions 1 mM ATP): 28.5

CN(C)c1ccnc(N2CCC(C(CC#N)n3cc(-c4ncnc5[nH]ccc45)cn3)C2)n1 (centres unmarked) [Example 6, 3-{1-[4-(dimethylamino)pyrimidin-2-yl]pyrrolidin-3-yl}-3-[4-(7H-pyrrolo[2,3-d]pyrimidin-4-yl)-1H-pyrazol-1-yl]propanenitrile]
IC50 [1, 2]: < 0.05 µM | JAK2/JAK1 IC50 ratio (Jak2 (a.a. 828-1132); [3]): >5

N#CC[C@@H]([C@H]1CCN(c2nc(Cl)c(CO)cc2F)C1)n1cc(-c2ncnc3[nH]ccc23)cn1 [Example 90, (3S)-3-{(3S)-1-[6-chloro-3-fluoro-5-(hydroxymethyl)pyridin-2-yl]pyrrolidin-3-yl}-3-[4-(7H-pyrrolo[2,3-d]pyrimidin-4-yl)-1H-pyrazol-1-yl]propanenitrile trifluoroacetate]
IC50 ([1]; Assay Conditions 1 mM ATP): < 0.05 µM | JAK2/JAK1 IC50 ratio (Jak2 (a.a. 828-1132); Assay Conditions 1 mM ATP): 4.3

N#CCC(C1CCN(c2ccc3cc[nH]c3n2)C1)n1cc(-c2ncnc3[nH]ccc23)cn1 (centres unmarked) [Example 73, 3-(1-(1H-pyrrolo[2,3-b]pyridin-6-yl)pyrrolidin-3-yl)-3-(4-(7H-pyrrolo[2,3-d]pyrimidin-4-yl)-1H-pyrazol-1-yl)propanenitrile trifluoroacetate]
IC50 ([1]; Assay Conditions 1 mM ATP): < 0.05 µM | JAK2/JAK1 IC50 ratio (Jak2 (a.a. 828-1132); Assay Conditions 1 mM ATP): 1.7

N#CCC(C1CCN(c2cccc(Cl)n2)C1)n1cc(-c2ncnc3[nH]ccc23)cn1 (single isomer, unassigned) [2, Step 2a]
IC50 [1, 2]: < 0.05 µM | JAK2/JAK1 IC50 ratio (Jak2 (a.a. 828-1132); [3]): 7.3

COc1ncc(F)c(N2CC[C@H]([C@H](CC#N)n3cc(-c4ncnc5[nH]ccc45)cn3)C2)n1 [Example 104, (S)-3-(4-(7H-pyrrolo[2,3-d]pyrimidin-4-yl)-1H-pyrazol-1-yl)-3-((S)-1-(5-fluoro-2-methoxypyrimidin-4-yl)pyrrolidin-3-yl)propanenitrile trifluoroacetate salt]
IC50 ([1]; Assay Conditions 1 mM ATP): < 0.05 µM | JAK2/JAK1 IC50 ratio (Jak2 (a.a. 828-1132); Assay Conditions 1 mM ATP): 5.9

N#CC[C@@H]([C@H]1CCN(c2ccc(C#N)c(Cl)n2)C1)n1cc(-c2ncnc3[nH]ccc23)cn1 [Example 69, 2-chloro-6-((3S)-3-{(1S)-2-cyano-1-[4-(7H-pyrrolo[2,3-d]pyrimidin-4-yl)-1H-pyrazol-1-yl]ethyl}pyrrolidin-1-yl)nicotinonitrile trifluoroacetate salt]
IC50 ([1]; Assay Conditions 1 mM ATP): < 0.05 µM | JAK2/JAK1 IC50 ratio (Jak2 (a.a. 828-1132); Assay Conditions 1 mM ATP): 6.5

N#CCC(C1CCN(c2nc(Br)cs2)C1)n1cc(-c2ncnc3[nH]ccc23)cn1 (centres unmarked) [Example 5, 3-[1-(4-bromo-1,3-thiazol-2-yl)pyrrolidin-3-yl]-3-[4-(7H-pyrrolo[2,3-d]pyrimidin-4-yl)-1H-pyrazol-1-yl]propanenitrile trifluoroacetate]
IC50 [1, 2]: < 0.05 µM | JAK2/JAK1 IC50 ratio (Jak2 (a.a. 828-1132); [3]): 2.2

N#CCC(C1CCN(c2nc3cc(F)ccc3o2)C1)n1cc(-c2ncnc3[nH]ccc23)cn1 (single isomer, unassigned) [Example 19, 3-[1-(5-fluoro-1,3-benzoxazol-2-yl)pyrrolidin-3-yl]-3-[4-(7H-pyrrolo[2,3-d]pyrimidin-4-yl)-1H-pyrazol-1-yl]propanenitrile]
IC50 ([1]; Assay Conditions 1 mM ATP): < 0.05 µM | JAK2/JAK1 IC50 ratio (Jak2 (a.a. 828-1132); Assay Conditions 1 mM ATP): 5.3

N#CC[C@@H]([C@H]1CCN(c2cncc(Cl)c2C#N)C1)n1cc(-c2ncnc3[nH]ccc23)cn1 [Example 64, 3-chloro-5-((3S)-3-{(1S)-2-cyano-1-[4-(7H-pyrrolo[2,3-d]pyrimidin-4-yl)-1H-pyrazol-1-yl]ethyl}pyrrolidin-1-yl) isonicotinonitrile trifluoroacetate salt]
IC50 ([1]; Assay Conditions 1 mM ATP): < 0.05 µM | JAK2/JAK1 IC50 ratio (Jak2 (a.a. 828-1132); Assay Conditions 1 mM ATP): 11

N#CCC(C1CCN(c2nc3cccnc3o2)C1)n1cc(-c2ncnc3[nH]ccc23)cn1 (single isomer, unassigned) [Example 13a, 3-(1-[1,3]oxazolo[5,4-b]pyridin-2-ylpyrrolidin-3-yl)-3-[4-(7H-pyrrolo[2,3-d]pyrimidin-4-yl)-1H-pyrazol-1-yl]propanenitrile]
IC50 [1, 2]: < 0.05 µM | JAK2/JAK1 IC50 ratio (Jak2 (a.a. 828-1132); [3]): 12

N#CC[C@@H]([C@H]1CCN(c2cccc(Br)c2C#N)C1)n1cc(-c2ncnc3[nH]ccc23)cn1 [Example 57, 2-bromo-6-((3S)-3-{(1S)-2-cyano-1-[4-(7H-pyrrolo[2,3-d]pyrimidin-4-yl)-1H-pyrazol-1-yl]ethyl}pyrrolidin-1-yl)benzonitrile trifluoroacetate salt]
IC50 ([1]; Assay Conditions 1 mM ATP): < 0.05 µM | JAK2/JAK1 IC50 ratio (Jak2 (a.a. 828-1132); Assay Conditions 1 mM ATP): 37

N#CCC(C1CCN(c2ccc3c(n2)[S+]([O-])CC3)C1)n1cc(-c2ncnc3[nH]ccc23)cn1 (single isomer, unassigned) [Example 28, 3-[1-(1-oxido-2,3-dihydrothieno[2,3-b]pyridin-6-yl)pyrrolidin-3-yl]-3-[4-(7H-pyrrolo[2,3-d]pyrimidin-4-yl)-1H-pyrazol-1-yl]propanenitrile]
IC50 ([1]; Assay Conditions 1 mM ATP): < 0.05 µM | JAK2/JAK1 IC50 ratio (Jak2 (a.a. 828-1132); Assay Conditions 1 mM ATP): 4

CS(=O)(=O)c1nccc(N2CCC(C(CC#N)n3cc(-c4ncnc5[nH]ccc45)cn3)C2)n1 (single isomer, unassigned) [Example 25, 3-{1-[2-(methylsulfonyl)pyrimidin-4-yl]pyrrolidin-3-yl}-3-[4-(7H-pyrrolo[2,3-d]pyrimidin-4-yl)-1H-pyrazol-1-yl]propanenitrile]
IC50 ([1]; Assay Conditions 1 mM ATP): < 0.05 µM | JAK2/JAK1 IC50 ratio (Jak2 (a.a. 828-1132); Assay Conditions 1 mM ATP): 34

N#CCC(C1CCN(c2nc3cccnc3o2)C1)n1cc(-c2ncnc3[nH]ccc23)cn1 (single isomer, unassigned) [Example 13b, 3-(1-[1,3]oxazolo[5,4-b]pyridin-2-ylpyrrolidin-3-yl)-3-[4-(7H-pyrrolo[2,3-d]pyrimidin-4-yl)-1H-pyrazol-1-yl]propanenitrile]
IC50 [1, 2]: < 0.05 µM | JAK2/JAK1 IC50 ratio (Jak2 (a.a. 828-1132); [3]): 2.1

CCS(=O)(=O)c1ccc(F)c(N2CC[C@H]([C@H](CC#N)n3cc(-c4ncnc5[nH]ccc45)cn3)C2)n1 [Example 93, (3S)-3-{(3S)-1-[6-(ethylsulfonyl)-3-fluoropyridin-2-yl]pyrrolidin-3-yl}-3-[4-(7H-pyrrolo[2,3-d]pyrimidin-4-yl)-1H-pyrazol-1-yl]propanenitrile trifluoroacetate]
IC50 ([1]; Assay Conditions 1 mM ATP): < 0.05 µM | JAK2/JAK1 IC50 ratio (Jak2 (a.a. 828-1132); Assay Conditions 1 mM ATP): 5.3

COCc1cccc(N2CC[C@H]([C@H](CC#N)n3cc(-c4ncnc5[nH]ccc45)cn3)C2)c1C#N [Example 112, 2-((S)-3-((S)-1-(4-(7H-pyrrolo[2,3-d]pyrimidin-4-yl)-1H-pyrazol-1-yl)-2-cyanoethyl)pyrrolidin-1-yl)-6-(methoxymethyl)benzonitrile]
IC50 ([1]; Assay Conditions 1 mM ATP): < 0.05 µM | JAK2/JAK1 IC50 ratio (Jak2 (a.a. 828-1132); Assay Conditions 1 mM ATP): 35.7

N#CC[C@@H]([C@H]1CCN(c2ncc(Br)nc2C#N)C1)n1cc(-c2ncnc3[nH]ccc23)cn1 [Example 142, 6-bromo-3-(3S)-3-{(1S)-2-cyano-1-[4-(7H-pyrrolo[2,3-d]pyrimidin-4-yl)-1H-pyrazol-1-yl]ethyl}pyrrolidin-1-yl)pyrazine-2-carbonitrile trifluoroacetate]
IC50 ([1]; Assay Conditions 1 mM ATP): < 0.05 µM | JAK2/JAK1 IC50 ratio (Jak2 (a.a. 828-1132); Assay Conditions 1 mM ATP): 14.2

COCc1ccnc(N2CC[C@H]([C@H](CC#N)n3cc(-c4ncnc5[nH]ccc45)cn3)C2)c1C#N [Example 96, 2-((3S)-3-{(1S)-2-cyano-1-[4-(7H-pyrrolo[2,3-d]pyrimidin-4-yl)-1H-pyrazol-1-yl]ethyl}pyrrolidin-1-yl)-4-(methoxymethyl)nicotinonitrile tris(trifluoroacetate)]
IC50 ([1]; Assay Conditions 1 mM ATP): < 0.05 µM | JAK2/JAK1 IC50 ratio (Jak2 (a.a. 828-1132); Assay Conditions 1 mM ATP): 16.3

N#CCC(C1CCN(c2nc3c(F)cccc3o2)C1)n1cc(-c2ncnc3[nH]ccc23)cn1 (single isomer, unassigned) [Example 20, 3-[1-(4-fluoro-1,3-benzoxazol-2-yl)pyrrolidin-3-yl]-3-[4-(7H-pyrrolo[2,3-d]pyrimidin-4-yl)-1H-pyrazol-1-yl]propanenitrile]
IC50 ([1]; Assay Conditions 1 mM ATP): < 0.05 µM | JAK2/JAK1 IC50 ratio (Jak2 (a.a. 828-1132); Assay Conditions 1 mM ATP): 10.4

CS(=O)(=O)c1nc(N2CC[C@H](C(CF)n3cc(-c4ncnc5[nH]ccc45)cn3)C2)c(F)cc1F (stereo partly drawn) [Example 132, 4-[1-(1-{(3S)-1-[3,5-difluoro-6-(methylsulfonyl)pyridin-2-yl]pyrrolidin-3-yl}-2-fluoroethyl)-1H-pyrazol-4-yl]-7H-pyrrolo [2,3-d]pyrimidine trifluoroacetate]
IC50 ([1]; Assay Conditions 1 mM ATP): < 0.05 µM | JAK2/JAK1 IC50 ratio (Jak2 (a.a. 828-1132); Assay Conditions 1 mM ATP): 8.9

N#CCC(C1CCN(c2ccc3c(n2)SCC3)C1)n1cc(-c2ncnc3[nH]ccc23)cn1 (single isomer, unassigned) [Example 29, 3-[1-(2,3-dihydrothieno[2,3-b]pyridin-6-yl)pyrrolidin-3-yl]-3-[4-(7H-pyrrolo[2,3-d]pyrimidin-4-yl)-1H-pyrazol-1-yl]propanenitrile]
IC50 ([1]; Assay Conditions 1 mM ATP): < 0.05 µM | JAK2/JAK1 IC50 ratio (Jak2 (a.a. 828-1132); Assay Conditions 1 mM ATP): 12
